Columns and labels:
[1] = test system: Influenza A Puerto Rico/8/1934 (H1N1) virus; assay type: in vivo, BALB/C mice; settings: for weight-loss phenomenon: 1.5 μmol/kg once daily for five consecutive days, linear PEG linkers compared to the DBCO-containing linker; for survival rate at the end of the experiment: mouse, in vivo
[2] = test system: influenza infection; experiment: Treatment of FRβ knockout mice following influenza infection; assay type: in vivo, folate receptor beta (FRβ) knockout mice; settings: FRβ knockout mice treated following influenza infection
[3] = test system: Influenza A Puerto Rico8/1934 (H1N1) virus; assay type: in vivo, BALB/C mice
[4] = test system: Influenza A H1N1/PR8/1932 virus; set-up: species or system BALB/C mice; settings: mouse, in vivo

Compound	weight-loss phenomenon [1]	survival rate at the end of the experiment [1] [%]	survival at the end of the experiment [2]	dose response of survival rate ([3]; […], 1.5, 0.5 and 0.17 μmol/kg once daily for five consecutive days)	survival rate ([3]; mouse, in vivo) [%]	body weight over time [4]	survival at the end of two weeks long experiment [4]
CC(=O)N[C@H]1[C@H]([C@H](OC(=O)NCCOCCOCCOCCOCCOCCOCCOCCOCCOCCOCCOCCNC(=O)CC[C@H](NC(=O)c2ccc(NCc3cnc4nc(N)[nH]c(=O)c4n3)cc2)C(=O)O)[C@H](O)CO)OC(C(=O)O)=C[C@@H]1NC(=N)N [zan-PEG11-folate]	more pronounced	100	–	–	–	–	–
CC(=O)N[C@H]1[C@H]([C@H](OC(=O)NCCOCCOCCOCCOCCOCCOCCNC(=O)CC[C@H](NC(=O)c2ccc(NCc3cnc4nc(N)[nH]c(=O)c4n3)cc2)C(=O)O)[C@H](O)CO)OC(C(=O)O)=C[C@@H]1NC(=N)N [Compound 10]	more pronounced	90	None of the mice survived	increased with increasing dose	100	did not lose any body weight	both the mice survived

— patent publication US20240285776A1, “SMALL MOLECULE-BASED BI-SPECIFIC IMMUNE CELL TETHERS AND THEIR USE IN THE TREATMENT OF ENVELOPED VIRUS INFECTION” (PURDUE RESEARCH FOUNDATION, priority 2021, published 2024)
